Series [1] concerns SKVLB1 cells (vinblastine-resistant, P-glycoprotein-overexpressing sub-line of SKOV3). Briefly: Inhibition of growth of SKVLB1 cells. In kind it is cell-based. To be noted: Homo sapiens. The protocol:
The Jurkat T cell leukemia line and A-10 rat aortic smooth muscle cells are obtained from the American Type Culture Collection and are cultured in BME containing 10% FBS and 50 μg/mL gentamycin sulfate. […] Both cell lines are maintained in BME containing 10% FBS and 50 μg/mL gentamycin sulfate.
Cell proliferation assays are performed as described by Skehan et al. For Jurkat cells, cultures are treated with the indicated drugs as described in Skehan and total cell numbers are determined by counting the cells in a hemacytometer. The percentage of cells in mitosis are determined by staining with 0.4% Giemsa in PBS followed by rapid washes with PBS. At least 1000 cells per treatment are scored for the presence of mitotic figures and the mitotic index is calculated as the ration of the cells with mitotic figures to the total number of cells counted.
SKVLB1 cells are resistant to natural product anticancer drugs because of their over expression of P-glycoprotein.

For series [2], the system named is A-10 rat aortic smooth muscle cells. The experiment in a line: Immunofluorescence assays of the cytoskeleton in A-10 cells. In kind it is cell-based. As to conditions: for Microtubule repolymerization after removal of drug: 100 nM for 24 hr. The protocol: A-10 cells are grown to near-confluency on glass coverslips in BME/10% FBS. Compounds in PBS are added to the indicated final concentrations and cells are incubated for an additional 24 hours. For the staining of microtubules and intermediate filaments, the cells are fixed with cold methanol and incubated with PBS containing 10% calf serum to block nonspecific binding sites. Cells are then incubated at 37° C for 60 min. with either monoclonal anti-S-tubulin or with monoclonal anti-vimentin at dilutions recommended by the manufacturer. Bound primary antibodies are subsequently visualized by a 45-minute incubation with fluorescein-conjugated rabbit antimouse IgG. The coverslips are mounted on microscope slides and the fluorescence patterns are examined and photographed using a Zeiss Photomicroscope Ill equipped with epifluorescence optics for fluorescein. […] PBS containing 100 nM TRITC-phalloidin is then added and the mixture is allowed to incubate for 45 min. at 37° C. The cells are washed rapidly with PBS before the coverslips are mounted and immediately photographed as described above.
After 24 hours, microtubules and vimentin intermediate filaments are visualized by indirect immunofluorescence and microfilaments are stained using TRITC-phalloidin. The morphological effects of each drug is examined.
After 24 hours, microtubule organization is examined by immunofluorescence as described above.
The cells are then washed and incubated in drug-free medium for periods of 1 hour or 24 hours. […] Cells are visualized for microtubule state after treatment with a cryptophycin compound of this invention at either 1 hour or 24 hours after removal of the cryptophycin compounds.

Entries after “also recorded” stand apart in the source; their conditions may differ.

As a reminder, the melting point is the temperature of the solid-liquid transition. As to `COc1ccc(C[C@H]2NC(=O)/C=C/C[C@@H]([C@H](C)/C=C/c3ccccc3)OC(=O)[C@H](CC(C)C)NC(=O)CC(CC(C)C)NC2=O)cc1Cl` (stereo partly shown), the melting point lay in the range of 258 to 260 °C.

The term IC50 denotes the midpoint of a concentration-inhibition curve. A high value points to lower potency. Take `CC(=O)O[C@H]1C(=O)[C@@]2(C)[C@H]([C@H](OC(=O)c3ccccc3)[C@]3(O)C[C@H](OC(=O)[C@H](O)[C@@H](NC(=O)c4ccccc4)c4ccccc4)C(C)=C1C3(C)C)[C@]1(OC(C)=O)CO[C@@H]1C[C@@H]2O` [Taxol, taxol]: the IC50 in series [1] is 8 µM. Besides, in series [2] (10 μM taxol, compared with control cells), the “Microtubule organization in taxol-treated cells” value was “extensively bundled”. In series [2] (3 hours 10 μM taxol before 100 nM vinblastine, 24 hours), the “Effect of taxol pretreatment on vinblastine-induced microtubule depolymerization” value was “prevented microtubule depolymerization in response to vinblastine”.

Regarding `C=C1[C@@H](C)[C@H]2[C@H](Cc3ccccc3)NC(=O)[C@]23OC(=O)/C=C/[C@H](O)CCC[C@@H](C)C/C=C/[C@H]3[C@@H]1O` [Cytochalasin B, cytochalasin B], the “Effect on distribution of microtubules and intermediate filaments” value in series [2] (2 μM cytochalasin B, 24 hours) is listed as “did not affect the distribution of either microtubules or intermediate filaments”. Also, the Effect on microfilaments result in series [2] (2 μM cytochalasin B, 24 hours, TRITC-phalloidin staining) is “complete depolymerization of microfilaments”.

`CC[C@]1(O)C[C@@H]2CN(CCc3c([nH]c4ccccc34)[C@@](C(=O)OC)(c3cc4c(cc3OC)N(C)[C@H]3[C@@](O)(C(=O)OC)[C@H](OC(C)=O)[C@]5(CC)C=CCN6CC[C@]43[C@@H]65)C2)C1` [Vinblastine, vinblastine] gave an IC50 in series [1] of 4.2 µM. For the same compound, the “Microtubule repolymerization after removal of drug” value in series [2] (then 1 hour in drug-free medium) is reported as “significant levels of microtubules after 1 hour”; in series [2] (then 24 hours in drug-free medium) it was “complete morphological recovery by 24 hour”. Further, the Effect on microtubules result in series [2] (100 nM vinblastine, 24 hours, not pretreated) was “complete depolymerization of microtubules; also recorded: complete microtubule depolymerization”.

(Values after patent publication US20020128185A1, “Pharmaceutical compounds” (priority 1998, published 2002).)
